Usually IC50 stands for the concentration at which inhibition is half-maximal.

The record followed here is ChEMBL document CHEMBL4354830, “Discovery of Benzo[cd]indol-2(1H)-ones and Pyrrolo[4,3,2-de]quinolin-2(1H)-ones as Bromodomain and Extra-Terminal Domain (BET) Inhibitors with Selectivity for the First Bromodomain with Potential High Efficiency against Acute Gouty Arthritis” (J Med Chem, 2019).

The structures appear in SMILES notation.

Data set [1] in a line: Permeability of compound at 10 uM by PAMPA assay. It is filed as ADME. To be noted: read-out: permeability. In general terms: The PAMPA barrier holds no transporters, so it reflects passive diffusion.
Data set [2] addresses T1, Bromodomain-containing protein 4 (Homo sapiens, UniProt O60885). Description: Inhibition of BRD4 BD1 in human THP1 cells assessed as inhibition of MSU-induced pyroptosis by measuring caspase-/PI+ cells at 1 uM incubated for 1 hr followed by MSU treatment and measured after 12 hrs by PI/caspase 1 double staining based flow cytometric analysis (reference value: 6.8 %). It is filed as cell-based. Also noted: scale not given: the % may be the effect or the level left.

Data set [3] in a line: Metabolic stability in rat assessed as intrinsic hepatic clearance by LC/MS-MS analysis. It is filed as ADME. The note with it: read-out: CLH.
The target of data set [4] is T1, Bromodomain-containing protein 4. In words: Displacement of tetra-acetylated histone H4 peptide (1-21) from recombinant human N-terminal His-tagged BRD4 BD1 (44 to 170 residues) expressed in Escherichia coli incubated for 30 mins followed by further incubation with tetra-acetylated histone H4 peptide (1-21) for 30 mins by Alphascreen assay. (Bead proximity is the source of the signal in Alpha formats.)

Data set [5] addresses Bromodomain-containing protein 3 (Homo sapiens, UniProt Q15059). Description: Displacement of tetra-acetylated histone H4 peptide (1-21) from BRD3 BD2 (unknown origin) incubated for 30 mins followed by further incubation with tetra-acetylated histone H4 peptide (1-21) for 30 mins by Alphascreen assay.
Data set [6] can be described thus: Metabolic stability in monkey assessed as intrinsic hepatic clearance by LC/MS-MS analysis. It is filed as ADME, Macaca mulatta. The note with it: rhesus monkey; read-out: CLH.
In data set [7] the target is Bromodomain-containing protein 2 (Homo sapiens, UniProt P25440). In words: Displacement of tetra-acetylated histone H4 peptide (1-21) from BRD2 BD2 (unknown origin) incubated for 30 mins followed by further incubation with tetra-acetylated histone H4 peptide (1-21) for 30 mins by Alphascreen assay.
The next data set deals with Rattus norvegicus. Description: In vivo inhibition of MSU-induced pyroptosis in Sprague-Dawley rat model of acute gout arthritis assessed as caspase-/PI- macrophage cells in synovial tissue at 1 mg/kg, ia administered 1 hr before MSU challenge and measured upto 24 hrs by PI staining based flow cytometric analysis (reference value: 63.6 %). Type of data set: functional. Also noted: scale not given: the % may be the effect or the level left.

Bromodomain-containing protein 2, sequence (P25440 whole entry): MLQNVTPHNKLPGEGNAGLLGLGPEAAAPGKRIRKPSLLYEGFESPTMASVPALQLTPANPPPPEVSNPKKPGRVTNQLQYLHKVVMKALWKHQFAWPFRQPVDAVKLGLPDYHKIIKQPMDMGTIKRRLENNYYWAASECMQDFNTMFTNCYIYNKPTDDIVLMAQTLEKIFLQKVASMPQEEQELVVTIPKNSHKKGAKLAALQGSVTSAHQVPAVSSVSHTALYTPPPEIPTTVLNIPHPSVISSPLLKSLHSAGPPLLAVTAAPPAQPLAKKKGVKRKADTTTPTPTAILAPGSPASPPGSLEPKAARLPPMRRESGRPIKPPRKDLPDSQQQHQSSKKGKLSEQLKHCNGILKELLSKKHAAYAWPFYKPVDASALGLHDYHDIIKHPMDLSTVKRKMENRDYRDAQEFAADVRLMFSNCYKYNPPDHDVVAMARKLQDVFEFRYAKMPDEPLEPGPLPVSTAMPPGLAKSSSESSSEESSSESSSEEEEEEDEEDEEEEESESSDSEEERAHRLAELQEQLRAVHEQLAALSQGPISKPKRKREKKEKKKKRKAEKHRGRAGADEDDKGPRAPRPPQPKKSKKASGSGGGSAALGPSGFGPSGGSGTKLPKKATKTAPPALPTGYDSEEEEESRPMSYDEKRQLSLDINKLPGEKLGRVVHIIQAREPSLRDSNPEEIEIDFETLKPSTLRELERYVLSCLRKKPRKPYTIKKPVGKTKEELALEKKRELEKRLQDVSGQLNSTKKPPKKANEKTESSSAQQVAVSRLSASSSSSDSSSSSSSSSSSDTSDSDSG
Bromodomain-containing protein 3, sequence (Q15059 whole entry): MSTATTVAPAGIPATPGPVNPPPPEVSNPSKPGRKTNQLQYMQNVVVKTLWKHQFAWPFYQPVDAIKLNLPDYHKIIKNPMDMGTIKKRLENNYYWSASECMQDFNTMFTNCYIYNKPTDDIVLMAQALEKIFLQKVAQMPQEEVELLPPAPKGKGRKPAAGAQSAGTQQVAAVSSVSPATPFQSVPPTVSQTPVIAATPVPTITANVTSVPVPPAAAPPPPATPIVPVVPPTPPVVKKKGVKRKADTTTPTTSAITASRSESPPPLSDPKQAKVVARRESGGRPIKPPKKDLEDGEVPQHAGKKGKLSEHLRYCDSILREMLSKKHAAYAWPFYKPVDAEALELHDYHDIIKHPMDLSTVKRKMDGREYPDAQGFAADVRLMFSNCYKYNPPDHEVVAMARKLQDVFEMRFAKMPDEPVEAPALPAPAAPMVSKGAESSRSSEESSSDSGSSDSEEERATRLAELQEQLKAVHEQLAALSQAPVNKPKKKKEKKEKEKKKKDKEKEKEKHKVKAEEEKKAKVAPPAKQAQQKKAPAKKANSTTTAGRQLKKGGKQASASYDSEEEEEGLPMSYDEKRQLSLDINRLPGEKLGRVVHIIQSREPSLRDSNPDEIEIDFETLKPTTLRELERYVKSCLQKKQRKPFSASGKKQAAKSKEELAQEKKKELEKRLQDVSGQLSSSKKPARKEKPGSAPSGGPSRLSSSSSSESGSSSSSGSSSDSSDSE

Regarding `COc1ccccc1S(=O)(=O)Nc1ccc2c3c(cc(-n4cnc(C)c4)nc13)C(=O)N2C`, the Papp at 10 µM in data set [1] was 0.117 ×10⁻⁶ cm/s. Moreover, the results for the Activity (in data set [2]; in the data set with Rattus norvegicus) were 4.9% and 83.1%, respectively. Moreover, the figures for the CLint scaled in data set [3] and in data set [6] were 264 mL/min/kg and 194 mL/min/kg, respectively. Further, the values for the IC50 in data set [4], in data set [5] and in data set [7] were 0.0877 µM, 49.8 µM and 21.4 µM, respectively.
